Four compounds from paper PMC7785020, “A unique hormonal recognition feature of the human glucagon-like peptide-2 receptor” (Cell Research, 2020) can be followed below.

Common to all, as to format: cell-based
One experiment concerns the target T1, GLP-2R D244^ECL1A (Homo sapiens, UniProt O95838, D244A).
T1 sequence (O95838 1-553 D244A): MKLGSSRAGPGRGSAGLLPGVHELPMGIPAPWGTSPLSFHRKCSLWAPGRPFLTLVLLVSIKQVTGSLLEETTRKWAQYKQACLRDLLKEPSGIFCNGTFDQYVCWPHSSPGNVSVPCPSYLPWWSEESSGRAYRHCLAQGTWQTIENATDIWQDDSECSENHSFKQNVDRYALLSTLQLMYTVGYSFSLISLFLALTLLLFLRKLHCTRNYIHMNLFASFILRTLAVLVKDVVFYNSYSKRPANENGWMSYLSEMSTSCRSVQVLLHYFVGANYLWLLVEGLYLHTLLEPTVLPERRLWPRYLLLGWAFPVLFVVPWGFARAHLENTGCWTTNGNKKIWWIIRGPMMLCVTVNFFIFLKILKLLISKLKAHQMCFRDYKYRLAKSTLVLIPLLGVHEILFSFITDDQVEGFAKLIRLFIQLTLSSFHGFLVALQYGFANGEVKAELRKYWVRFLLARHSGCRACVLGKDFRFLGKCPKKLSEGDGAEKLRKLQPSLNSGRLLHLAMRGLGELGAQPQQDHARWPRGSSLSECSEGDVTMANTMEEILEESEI
The experiment in a line: cAMP accumulation, D244^ECL1A. On the set-up: WT (1–553); expressed in transfected cells; HEK 293T (cAMP). To be noted: Table S5, D244A, HEK 293T, 30 min, RT, mean ± SEM, n ≥ 3 in duplicate; for Emax: read-out: cAMP Emax (% WT); for EC50: read-out: cAMP pEC50 (converted). The procedure: (§1) HEK 293T cells were cultured in Dulbecco’s Modified Eagle’s Medium (DMEM) (Gibco, Waltham, USA) supplemented with 10% (v/v) fetal bovine serum (FBS) (Gibco) and 1% (v/v) sodium pyruvate (Gibco) at 37 °C, 5% CO2 in a humidified incubator. They were seeded onto 6-well cell culture plates and transiently transfected with different GLP-2R constructs using Lipofectamine 2000 transfection reagent (Invitrogen, Carlsbad, CA, USA). After 24 h, the transfected cells were seeded onto 384-well microtiter plates (3000 cells per well) in HBSS supplemented with 5 mM HEPES, 0.1% (w/v) bovine serum albumin (BSA) and 0.5 mM 3-isobutyl-1- methylxanthine, and stimulated with increasing concentrations of GLP-2 for 30 min at RT. Eu and Ulight were diluted by cAMP detection buffer and added to the plates separately to terminate the reaction. Plates were incubated at RT for 60 min before measuring the fluorescence intensity at 620 nm and […] by an EnVision multilabel plate reader (PerkinElmer, Boston, USA).

Another experiment deals with T2, GLP-2R (1-553) (WT) (Homo sapiens, UniProt O95838).
T2 construct: GLP-2R (1-553) (WT); expressed in transfected cells; host or cells: HEK 293T
T2 sequence (O95838 1-553): T1 sequence (O95838 1-553 D244A) with A244D
The experiment in a line: cAMP accumulation, WT GLP-2R. To be noted: 30 min, RT, mean ± SEM, n ≥ 3 in duplicate; for Emax: HEK-293T; for EC50: HEK 293T, read-out: cAMP pEC50 (converted). The procedure:
as §1
(In general: Changes in cAMP serve as a functional read-out for many G protein-coupled receptors.)

The next experiment concerns the target T3, GLP-2R N247^ECL1A (Homo sapiens, UniProt O95838, N247A).
T3 sequence (O95838 1-553 N247A): T1 sequence (O95838 1-553 D244A) with A244D, N247A
The experiment can be described thus: cAMP accumulation, N247^ECL1A. Details: WT (1–553); expressed in transfected cells; HEK 293T (cAMP). To be noted: Table S5, N247A, HEK 293T, 30 min, RT, mean ± SEM, n ≥ 3 in duplicate; for Emax: read-out: cAMP Emax (% WT); for EC50: read-out: cAMP pEC50 (converted). As for the experimental part: as §1

Substitutions are numbered along the chain they refer to. No end group written: not given here.

For orientation: Emax means the maximal effect, on the per cent scale that the assay sets. Take `CC[C@H](C)[C@H](NC(=O)[C@H](Cc1ccccc1)NC(=O)[C@H](CC(=O)O)NC(=O)[C@H](CCCNC(=N)N)NC(=O)[C@H](C)NC(=O)[C@H](C)NC(=O)[C@H](CC(C)C)NC(=O)[C@H](CC(N)=O)NC(=O)[C@H](CC(=O)O)NC(=O)[C@H](CC(C)C)NC(=O)[C@@H](NC(=O)[C@@H](NC(=O)[C@H](CC(N)=O)NC(=O)[C@H](CCSC)NC(=O)[C@H](CCC(=O)O)NC(=O)[C@H](CC(=O)O)NC(=O)[C@H](CO)NC(=O)[C@H](Cc1ccccc1)NC(=O)[C@H](CO)NC(=O)CNC(=O)[C@H](CC(=O)O)NC(=O)[C@H](C)NC(=O)[C@@H](N)Cc1c[nH]cn1)[C@@H](C)O)[C@@H](C)CC)C(=O)N[C@@H](CC(N)=O)C(=O)N[C@@H](Cc1c[nH]c2ccccc12)C(=O)N[C@@H](CC(C)C)C(=O)N[C@H](C(=O)N[C@@H](CCC(N)=O)C(=O)N[C@H](C(=O)N[C@@H](CCCCN)C(=O)N[C@H](C(=O)N[C@H](C(=O)N[C@@H](CC(=O)O)C(=O)O)[C@@H](C)O)[C@@H](C)CC)[C@@H](C)O)[C@@H](C)CC` [Human GLP-2 (1–33)]: the maximal effect (Emax) turned out to be 101 ± 2.8% at GLP-2R D244^ECL1A; 101 ± 2.4% at GLP-2R (1-553) (WT) (Table S3, WT); 101 ± 2.9% on GLP-2R (1-553) (WT) (Table S4, WT); 103 ± 1.6% on GLP-2R (1-553) (WT) (Table S5, GLP-2R (WT)); 103 ± 1.8% at GLP-2R N247^ECL1A.
In the case of “HADGSFSDEMNTILDNLAAKEFIAWLVKGRG [Chimeric GLP-1/GLP-2 (20-33)]”, the maximal effect (Emax) on GLP-2R D244^ECL1A was determined as 104 ± 1.8%; at GLP-2R (1-553) (WT) (Table S5, GLP-2R (WT)), 104 ± 1.5%; at GLP-2R N247^ECL1A, 103 ± 1.8%. Also, the EC50 at GLP-2R D244^ECL1A is 0.251 nM; on GLP-2R (1-553) (WT) (Table S5, GLP-2R (WT)), 0.126 nM; at GLP-2R N247^ECL1A it was 0.0501 nM.
As for “HADGSFTSDVSSYLEGQAARDFINWLIQTKITD [Chimeric GLP-1/GLP-2 (7-19)]”, the maximal response (Emax) on GLP-2R D244^ECL1A is 102 ± 1.8%; on GLP-2R (1-553) (WT) (Table S5, GLP-2R (WT)), 103 ± 2.6%; at GLP-2R N247^ECL1A, 102 ± 2.8%. For the same compound, the EC50 at GLP-2R D244^ECL1A is 3.16 nM; at GLP-2R (1-553) (WT) (Table S5, GLP-2R (WT)) it was 3.16 nM; on GLP-2R N247^ECL1A it was 1.26 nM.
As for “HAEGTFSDEMNTILDNLAARDFINWLIQTKITD [Chimeric GLP-1/GLP-2 (1-6)]”, the maximum response (Emax) amounted to 102 ± 2.5% on GLP-2R D244^ECL1A; 103 ± 1.8% at GLP-2R (1-553) (WT) (Table S5, GLP-2R (WT)); 102 ± 1.8% at GLP-2R N247^ECL1A. Besides, the EC50 is 0.251 nM on GLP-2R D244^ECL1A; 0.158 nM at GLP-2R (1-553) (WT) (Table S5, GLP-2R (WT)); 0.0398 nM on GLP-2R N247^ECL1A.
